Read-outs that look alike come from different tables or passages of the source.
Test: Phase 1a single ascending dose study: UV-4 plasma concentrations and PK parameters (LC-MS/MS, noncompartmental)
Type: in vivo
Conditions: for Tmax / half-life / AUC(0-inf) / Cmax: both sexes, human, plasma; for AUC(0-inf): read-out: AUC(0-inf); for Cmax: read-out: Cmax
Procedure: UV-4 ((2R,3R,4R,5S)-2-(hydroxymethyl)-1-(9-methoxynonyl)piperidine-3,4,5-triol, also called N-(9’-methoxynonyl)-1-deoxynojirimycin, or MON-DNJ) hydrochloride was evaluated in a first-in-human, randomized, single-center, double-blind, placebo-controlled, parallel group, single ascending dose Phase 1a clinical trial in healthy subjects (Figs 1 and 2, ClinicalTrials.gov Identifier NCT02061358 https://clinicaltrials.gov/ct2/show/NCT02061358). The primary objective was to determine the safety and tolerability of a single-ascending oral dose of UV-4 hydrochloride (Fig 3). […] The secondary objective was to determine PK parameters describing absorption and elimination of UV-4 following a single oral dose of UV-4 hydrochloride. Eight cohorts of eight subjects each were enrolled and completed the study. In each cohort, six subjects received UV-4 as the hydrochloride; two received placebo. Subjects were screened against study eligibility criteria up to four weeks (Days -28 to -2) before admission to the clinic (Day -1). Dosing was performed on an inpatient basis. Subjects remained in clinic for 48 hours post-dosing for PK sample collection and safety assessments and were discharged from the clinic on Day 3. Subjects returned to the clinic on Day 4 for additional safety assessments, then again on Day 9 ± 1 for a final follow-up visit.
Eligible subjects were healthy males and females, age 18–45 years, with a body mass index between 18 and 30 kg/m^2 inclusive and a minimum body weight of 60 kg. Subjects were considered healthy based on medical history, physical exam, vital signs, 12-lead electrocardiogram (ECG), clinical laboratory tests (hematology, blood chemistry, urinalysis), viral serology, and drug and alcohol screening. Male and female subjects of childbearing potential were required to use adequate contraception over the course of the clinical trial. […] Only subjects who met all inclusion and none of the exclusion criteria prior to administration of the investigational product were enrolled into the study (no exemptions were granted). A total of 64 subjects were enrolled (eight cohorts of eight subjects each). In each of the eight cohorts, six subjects were randomized to receive a single dose of UV-4 (3 to 1000 mg, depending on cohort) as the hydrochloride salt, and two subjects to receive placebo. Cohort size of six active subjects was based on analysis that increasing cohort size above six in a first-in-human study gains little in the ability to observe a drug induced event, and results in observing more events that are not related to study drug. Two of the eight subjects in each cohort (sentinel subjects; one active and one placebo) received their doses at least 48 h before the remaining subjects in each cohort.
On each day of use, bulk drug substance (UV-4B for solubilization, SAI Life Sciences Ltd. Telangana, India) was removed from a single-use container, weighed at the study center, and solubilized in 20 mL sterile water for injection (SWFI) (Hospira Inc. Illinois, United States of America). Weight of solid drug substance was converted to dose of UV-4 by applying purity and salt correction factor per pharmacy manual when preparing the dosing solution. UV-4B solution was administered orally with 10 mL of taste-masking agent, OraSweet-SF (Paddock Laboratories LLC, Minneapolis, United States of America) in a total volume of 30 mL, to assist in maintaining study blinding. Placebo was SWFI (20 mL) plus OraSweet-SF (10 mL). Concentrations and doses were calculated and expressed as the active free base form, UV-4. This methodology is consistent with USP<1121>, which recommends that the strength of a drug product or preparation is expressed in terms of the active moiety. Following consumption of active or placebo solution, the dosing container was rinsed with 50 mL of tap water also consumed by subjects. […]

[1] = po, 3 mg, 3 mg single oral dose, Ar Mean

With `COCCCCCCCCCN1C[C@H](O)[C@@H](O)[C@H](O)[C@H]1CO` [UV-4, N-(9’-methoxynonyl)-1-deoxynojirimycin] as the compound, how does the “Time over which UV-4 plasma concentrations were quantifiable” value (3 mg, 5 of 6 subjects) read?
The value was 24 h.

What about the “Time over which UV-4 plasma concentrations were quantifiable” value (3 mg, one subject) of the same compound?
The value was 36 h.

What about the Tmax (oral, 3 to 1000 mg UV-4 dose range, read-out: Median time to reach maximum plasma concentration (tmax), range across dose groups) of the same compound?
The Tmax was 0.5 to 1 h.

And the half-life (oral, Phase 1a study, 3 to 1000 mg, read-out: Mean half-life, range across dose groups)?
The half-life was 8.14 to 12 h.

What about the AUC(0-inf) [1] of the same compound?
Its AUC(0-inf) is 95.6 ng·h/mL.

What about the Cmax [1] of the same compound?
The Cmax was 22.4 ng/mL.

What about the half-life (po, 3 mg, 3 mg single oral dose, Ar Mean, read-out: t1/2 (converted)) of the same compound?
The half-life was 10.7 h.

And the AUC(0-inf) (po, 3 mg, 3 mg single oral dose, Arithmetic Mean)?
The AUC(0-inf) was 95.6 ng·h/mL.

And the Cmax (po, 3 mg, 3 mg single oral dose, Geo Mean)?
The Cmax was 22.1 ng/mL.

And the half-life (po, 3 mg, 3 mg single oral dose, Geo Mean, read-out: t1/2 (converted))?
The half-life was 10.3 h.

And the AUC(0-inf) (po, 3 mg, 3 mg single oral dose, Geometric Mean)?
The AUC(0-inf) was 94.6 ng·h/mL.

And the Tmax (po, 3 mg, 3 mg single oral dose, median, read-out: tmax)?
The Tmax was 0.5 h.

And the Cmax (po, 10 mg, 10 mg single oral dose, Ar Mean)?
Its Cmax is 84.6 ng/mL.

What about the half-life (po, 10 mg, 10 mg single oral dose, Ar Mean, read-out: t1/2 (converted)) of the same compound?
The half-life was 12 h.

What about the AUC(0-inf) (po, 10 mg, 10 mg single oral dose, Arithmetic Mean) of the same compound?
The AUC(0-inf) was 431 ng·h/mL.

And the Cmax (po, 10 mg, 10 mg single oral dose, Geo Mean)?
Its Cmax is 82.6 ng/mL.

What about the half-life (po, 10 mg, 10 mg single oral dose, Geo Mean, read-out: t1/2 (converted)) of the same compound?
Its half-life is 11.9 h.

And the AUC(0-inf) (po, 10 mg, 10 mg single oral dose, Geometric Mean)?
Its AUC(0-inf) is 420 ng·h/mL.

And the Tmax (po, 10 mg, 10 mg single oral dose, median, read-out: tmax)?
Its Tmax is 1 h.

And the Cmax (po, 30 mg, 30 mg single oral dose, Ar Mean)?
Its Cmax is 292 ng/mL.

What about the half-life (po, 30 mg, 30 mg single oral dose, Ar Mean, read-out: t1/2 (converted)) of the same compound?
The half-life was 10 h.

And the AUC(0-inf) (po, 30 mg, 30 mg single oral dose, Arithmetic Mean)?
The AUC(0-inf) was 1260 ng·h/mL.

And the Cmax (po, 30 mg, 30 mg single oral dose, Geo Mean)?
The Cmax was 289 ng/mL.

And the half-life (po, 30 mg, 30 mg single oral dose, Geo Mean, read-out: t1/2 (converted))?
Its half-life is 10 h.

And the AUC(0-inf) (po, 30 mg, 30 mg single oral dose, Geometric Mean)?
Its AUC(0-inf) is 1260 ng·h/mL.

What about the Tmax (po, 30 mg, 30 mg single oral dose, median, read-out: tmax) of the same compound?
Its Tmax is 0.5 h.

And the Cmax (po, 90 mg, 90 mg single oral dose, Ar Mean)?
Its Cmax is 946 ng/mL.

What about the half-life (po, 90 mg, 90 mg single oral dose, Ar Mean, read-out: t1/2 (converted)) of the same compound?
The half-life was 10.4 h.

What about the AUC(0-inf) (po, 90 mg, 90 mg single oral dose, Arithmetic Mean) of the same compound?
The AUC(0-inf) was 3730 ng·h/mL.

What about the Cmax (po, 90 mg, 90 mg single oral dose, Geo Mean) of the same compound?
The Cmax was 900 ng/mL.

And the half-life (po, 90 mg, 90 mg single oral dose, Geo Mean, read-out: t1/2 (converted))?
The half-life was 10.2 h.

And the AUC(0-inf) (po, 90 mg, 90 mg single oral dose, Geometric Mean)?
Its AUC(0-inf) is 3700 ng·h/mL.

What about the Tmax (po, 90 mg, 90 mg single oral dose, median, read-out: tmax) of the same compound?
Its Tmax is 0.5 h.

What about the Cmax (po, 180 mg, 180 mg single oral dose, Ar Mean) of the same compound?
The Cmax was 2150 ng/mL.

And the half-life (po, 180 mg, 180 mg single oral dose, Ar Mean, read-out: t1/2 (converted))?
The half-life was 8.7 h.

And the AUC(0-inf) (po, 180 mg, 180 mg single oral dose, Arithmetic Mean)?
Its AUC(0-inf) is 7110 ng·h/mL.

And the Cmax (po, 180 mg, 180 mg single oral dose, Geo Mean)?
Its Cmax is 2060 ng/mL.

And the half-life (po, 180 mg, 180 mg single oral dose, Geo Mean, read-out: t1/2 (converted))?
Its half-life is 8.7 h.

And the AUC(0-inf) (po, 180 mg, 180 mg single oral dose, Geometric Mean)?
The AUC(0-inf) was 7090 ng·h/mL.

And the Tmax (po, 180 mg, 180 mg single oral dose, median, read-out: tmax)?
The Tmax was 0.8 h.

What about the Cmax (po, 360 mg, 360 mg single oral dose, Ar Mean) of the same compound?
The Cmax was 4570 ng/mL.

What about the half-life (po, 360 mg, 360 mg single oral dose, Ar Mean, read-out: t1/2 (converted)) of the same compound?
The half-life was 8.1 h.

And the AUC(0-inf) (po, 360 mg, 360 mg single oral dose, Arithmetic Mean)?
Its AUC(0-inf) is 13800 ng·h/mL.

And the Cmax (po, 360 mg, 360 mg single oral dose, Geo Mean)?
Its Cmax is 4490 ng/mL.

And the half-life (po, 360 mg, 360 mg single oral dose, Geo Mean, read-out: t1/2 (converted))?
Its half-life is 8.1 h.

What about the AUC(0-inf) (po, 360 mg, 360 mg single oral dose, Geometric Mean) of the same compound?
The AUC(0-inf) was 13700 ng·h/mL.

What about the Tmax (po, 360 mg, 360 mg single oral dose, median, read-out: tmax) of the same compound?
Its Tmax is 0.5 h.

What about the Cmax (po, 720 mg, 720 mg single oral dose, Ar Mean) of the same compound?
The Cmax was 9920 ng/mL.

What about the half-life (po, 720 mg, 720 mg single oral dose, Ar Mean, read-out: t1/2 (converted)) of the same compound?
The half-life was 8.2 h.

What about the AUC(0-inf) (po, 720 mg, 720 mg single oral dose, Arithmetic Mean) of the same compound?
The AUC(0-inf) was 32900 ng·h/mL.

What about the Cmax (po, 720 mg, 720 mg single oral dose, Geo Mean) of the same compound?
Its Cmax is 9760 ng/mL.

And the half-life (po, 720 mg, 720 mg single oral dose, Geo Mean, read-out: t1/2 (converted))?
The half-life was 8.2 h.

And the AUC(0-inf) (po, 720 mg, 720 mg single oral dose, Geometric Mean)?
Its AUC(0-inf) is 32800 ng·h/mL.

And the Tmax (po, 720 mg, 720 mg single oral dose, median, read-out: tmax)?
The Tmax was 0.8 h.

What about the Cmax (po, 1000 mg, 1000 mg single oral dose, Ar Mean) of the same compound?
The Cmax was 13100 ng/mL.

And the half-life (po, 1000 mg, 1000 mg single oral dose, Ar Mean, read-out: t1/2 (converted))?
The half-life was 8.8 h.

What about the AUC(0-inf) (po, 1000 mg, 1000 mg single oral dose, Arithmetic Mean) of the same compound?
The AUC(0-inf) was 43100 ng·h/mL.

And the Cmax (po, 1000 mg, 1000 mg single oral dose, Geo Mean)?
Its Cmax is 13000 ng/mL.

What about the half-life (po, 1000 mg, 1000 mg single oral dose, Geo Mean, read-out: t1/2 (converted)) of the same compound?
The half-life was 8.6 h.

What about the AUC(0-inf) (po, 1000 mg, 1000 mg single oral dose, Geometric Mean) of the same compound?
Its AUC(0-inf) is 42800 ng·h/mL.

What about the Tmax (po, 1000 mg, 1000 mg single oral dose, median, read-out: tmax) of the same compound?
Its Tmax is 1 h.

And the “Time over which UV-4 plasma concentrations were quantifiable” value (doses of 10 mg or higher, entire collection interval)?
Its value is 48 h.

— PMC9387934, “Randomized single oral dose phase 1 study of safety, tolerability, and pharmacokinetics of Iminosugar UV-4 Hydrochloride (UV-4B) in healthy subjects” (PLoS Neglected Tropical Diseases, 2022)
